Reference: patent US8871753B2, “Macrocyclic compounds and their use as kinase inhibitors” (Incyte Corporation, priority 2008, dated 2014)
Structures can show the parent of a compound that is named as a salt. Where two headings read alike, the source gives them in different places. Blank lines part the entries; values can stand above or below the compound they belong to.

Tests used:
Type in all cases: biochemical
[1] = target: T1, human JAK1 (a.a. 837-1142) (Homo sapiens, UniProt P23458); experiment: In vitro JAK kinase assay (HTRF, phosphorylation of a biotinylated peptide), JAK1; settings: read-out: JAK1 IC50
T1 construct: human JAK1 (a.a. 837-1142); His tag (N); made in house; host or cells: insect cells (baculovirus)
T1 sequence (P23458 849-1154): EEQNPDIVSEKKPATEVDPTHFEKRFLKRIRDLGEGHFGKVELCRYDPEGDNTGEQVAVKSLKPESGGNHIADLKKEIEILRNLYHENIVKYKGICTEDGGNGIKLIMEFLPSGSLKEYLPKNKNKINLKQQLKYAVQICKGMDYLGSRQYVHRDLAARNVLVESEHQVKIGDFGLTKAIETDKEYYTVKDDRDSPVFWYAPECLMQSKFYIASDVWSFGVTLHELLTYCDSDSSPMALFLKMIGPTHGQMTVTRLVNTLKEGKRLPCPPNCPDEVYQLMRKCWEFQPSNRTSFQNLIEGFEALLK
Summary of the method: (§1)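 Phosphorylation of a biotinylated peptide by the JAK kinase domain, detected by HTRF with Eu-Py20 and SA-APC. ATP was 90 μM for JAK1, 30 μM for JAK2 and 3 μM for JAK3. Reactions ran 1 h at room temperature and were stopped with EDTA, followed by 40 min antibody binding.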

[2] = target: T2, human JAK2 (a.a. 828-1132) (Homo sapiens, UniProt O60674); experiment: In vitro JAK kinase assay (HTRF, phosphorylation of a biotinylated peptide), JAK2
T2 construct: JAK2 (a.a. 828-1132); His tag (N); made in house; host or cells: insect cells (baculovirus)
T2 sequence (O60674 828-1132): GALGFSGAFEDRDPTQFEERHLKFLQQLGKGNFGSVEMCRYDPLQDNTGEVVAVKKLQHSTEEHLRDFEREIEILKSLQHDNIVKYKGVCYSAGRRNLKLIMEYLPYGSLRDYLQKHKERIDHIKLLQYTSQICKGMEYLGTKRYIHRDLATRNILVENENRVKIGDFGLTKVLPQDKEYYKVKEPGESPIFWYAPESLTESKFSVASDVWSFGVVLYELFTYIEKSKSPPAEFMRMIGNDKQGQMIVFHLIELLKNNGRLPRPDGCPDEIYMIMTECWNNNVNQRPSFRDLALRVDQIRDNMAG
Summary of the method: as §1

[3] = target: TYK2 (Homo sapiens, UniProt P29597); experiment: TYK2 kinase inhibition (Table A1)
Chain of TYK2 (P29597 whole entry): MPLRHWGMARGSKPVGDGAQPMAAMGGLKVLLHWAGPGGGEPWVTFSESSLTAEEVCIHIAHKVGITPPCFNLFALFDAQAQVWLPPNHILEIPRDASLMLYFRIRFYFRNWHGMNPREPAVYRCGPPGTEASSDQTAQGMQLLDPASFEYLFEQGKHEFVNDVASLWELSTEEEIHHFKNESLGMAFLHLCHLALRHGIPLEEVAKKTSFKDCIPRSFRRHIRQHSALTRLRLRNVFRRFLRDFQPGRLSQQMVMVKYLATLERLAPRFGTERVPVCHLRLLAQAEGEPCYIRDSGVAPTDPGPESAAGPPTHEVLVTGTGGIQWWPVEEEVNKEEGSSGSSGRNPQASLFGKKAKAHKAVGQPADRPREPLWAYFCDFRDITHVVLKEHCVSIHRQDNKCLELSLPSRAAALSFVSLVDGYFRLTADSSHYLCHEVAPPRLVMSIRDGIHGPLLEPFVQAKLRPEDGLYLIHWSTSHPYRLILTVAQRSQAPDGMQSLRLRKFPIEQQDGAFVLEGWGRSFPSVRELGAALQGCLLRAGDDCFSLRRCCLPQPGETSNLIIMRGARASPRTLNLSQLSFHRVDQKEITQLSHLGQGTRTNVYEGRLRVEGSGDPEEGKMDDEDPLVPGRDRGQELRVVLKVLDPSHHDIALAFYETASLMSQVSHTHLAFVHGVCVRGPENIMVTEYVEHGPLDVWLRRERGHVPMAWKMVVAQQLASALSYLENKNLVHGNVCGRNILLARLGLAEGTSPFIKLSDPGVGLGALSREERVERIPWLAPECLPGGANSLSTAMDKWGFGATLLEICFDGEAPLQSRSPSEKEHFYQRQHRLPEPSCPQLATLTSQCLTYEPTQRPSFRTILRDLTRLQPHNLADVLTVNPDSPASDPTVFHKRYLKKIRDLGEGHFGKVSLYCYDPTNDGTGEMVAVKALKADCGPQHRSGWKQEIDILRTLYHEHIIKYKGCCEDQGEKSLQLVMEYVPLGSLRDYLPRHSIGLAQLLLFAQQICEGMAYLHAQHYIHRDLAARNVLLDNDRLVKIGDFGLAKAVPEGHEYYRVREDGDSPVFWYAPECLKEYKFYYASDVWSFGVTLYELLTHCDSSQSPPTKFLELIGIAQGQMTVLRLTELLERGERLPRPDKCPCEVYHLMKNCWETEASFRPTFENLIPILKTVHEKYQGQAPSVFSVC

[4] = target: T3, human JAK3 (a.a. 781-1124) (Homo sapiens, UniProt P52333); experiment: In vitro JAK kinase assay (HTRF, phosphorylation of a biotinylated peptide), JAK3
T3 construct: JAK3 (a.a. 781-1124); His tag (N); made in house; host or cells: insect cells (baculovirus)
T3 sequence (P52333 781-1124): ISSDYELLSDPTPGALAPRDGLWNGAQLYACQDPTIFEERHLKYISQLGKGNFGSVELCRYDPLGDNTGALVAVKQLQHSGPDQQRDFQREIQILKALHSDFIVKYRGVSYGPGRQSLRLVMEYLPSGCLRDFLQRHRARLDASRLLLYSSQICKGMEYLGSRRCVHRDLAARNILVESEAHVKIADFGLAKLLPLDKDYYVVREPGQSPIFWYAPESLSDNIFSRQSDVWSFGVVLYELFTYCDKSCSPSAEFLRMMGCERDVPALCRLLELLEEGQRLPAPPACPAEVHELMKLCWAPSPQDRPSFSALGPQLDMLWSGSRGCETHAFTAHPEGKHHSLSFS
Summary of the method: as §1

[5] = target: T4, Recombinant Human Anaplastic Lymphoma Kinase (Homo sapiens, UniProt Q9UM73); experiment: ALK HTRF kinase assay; settings: for IC50: Table D1
T4 construct: purchased Invitrogen, Carlsbad, Calif
T4 sequence (Q9UM73 19-1620): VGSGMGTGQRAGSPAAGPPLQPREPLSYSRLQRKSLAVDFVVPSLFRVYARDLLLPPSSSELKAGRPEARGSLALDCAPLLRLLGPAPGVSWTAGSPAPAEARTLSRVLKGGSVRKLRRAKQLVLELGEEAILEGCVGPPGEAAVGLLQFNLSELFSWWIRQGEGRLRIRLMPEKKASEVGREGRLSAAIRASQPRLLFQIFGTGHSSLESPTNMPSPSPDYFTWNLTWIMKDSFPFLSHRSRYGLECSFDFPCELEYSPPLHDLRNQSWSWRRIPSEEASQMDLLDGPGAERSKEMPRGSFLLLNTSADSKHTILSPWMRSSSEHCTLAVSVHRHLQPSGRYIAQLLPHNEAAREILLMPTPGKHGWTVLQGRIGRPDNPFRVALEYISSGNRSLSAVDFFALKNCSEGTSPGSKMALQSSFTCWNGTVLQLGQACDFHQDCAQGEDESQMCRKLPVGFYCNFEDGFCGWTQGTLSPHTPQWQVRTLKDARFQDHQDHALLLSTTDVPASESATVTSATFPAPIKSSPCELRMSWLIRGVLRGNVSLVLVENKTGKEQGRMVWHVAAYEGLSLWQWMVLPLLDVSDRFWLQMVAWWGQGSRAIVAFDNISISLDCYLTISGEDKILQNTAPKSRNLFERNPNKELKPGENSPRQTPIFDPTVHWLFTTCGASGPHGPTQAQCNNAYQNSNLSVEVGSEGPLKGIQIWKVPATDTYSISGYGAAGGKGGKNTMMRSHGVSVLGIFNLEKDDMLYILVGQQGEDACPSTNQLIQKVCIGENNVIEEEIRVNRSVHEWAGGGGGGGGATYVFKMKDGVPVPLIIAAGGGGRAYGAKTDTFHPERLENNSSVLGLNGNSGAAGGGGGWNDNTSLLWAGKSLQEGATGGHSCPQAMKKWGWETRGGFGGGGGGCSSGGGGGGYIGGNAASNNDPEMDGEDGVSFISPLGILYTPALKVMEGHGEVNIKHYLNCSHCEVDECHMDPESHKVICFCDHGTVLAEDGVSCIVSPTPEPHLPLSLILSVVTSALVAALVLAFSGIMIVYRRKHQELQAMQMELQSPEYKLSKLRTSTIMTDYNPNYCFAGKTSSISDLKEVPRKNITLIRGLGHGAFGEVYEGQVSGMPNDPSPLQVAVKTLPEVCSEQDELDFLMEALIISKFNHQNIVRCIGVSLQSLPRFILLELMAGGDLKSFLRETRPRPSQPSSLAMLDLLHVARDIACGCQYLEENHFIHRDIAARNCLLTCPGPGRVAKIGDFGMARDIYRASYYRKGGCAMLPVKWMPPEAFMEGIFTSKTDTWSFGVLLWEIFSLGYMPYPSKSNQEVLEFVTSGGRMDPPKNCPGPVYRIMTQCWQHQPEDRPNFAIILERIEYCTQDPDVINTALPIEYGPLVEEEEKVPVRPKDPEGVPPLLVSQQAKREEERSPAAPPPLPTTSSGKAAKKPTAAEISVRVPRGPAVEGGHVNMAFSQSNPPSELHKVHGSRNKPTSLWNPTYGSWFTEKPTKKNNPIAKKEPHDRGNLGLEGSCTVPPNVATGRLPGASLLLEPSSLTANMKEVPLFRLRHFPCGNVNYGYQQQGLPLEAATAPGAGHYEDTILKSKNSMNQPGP
Summary of the method: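 Biotinylated peptide substrate, recombinant human ALK; detection via europium-chelate antibody to phosphotyrosine paired with streptavidin-APC. Potency expressed as IC50 from four-parameter curve fitting.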

[6] = compound at a concentration of 500 nM or 1 mM (not specified), cells shown as percentage
[7] = method AA1 (90 μM ATP) or AA2 (1000 μM ATP), not stated per value
[8] = method AA1 (30 μM ATP) or AA2 (1000 μM ATP), not stated per value
[9] = method AA1 (3 μM ATP) or AA2 (1000 μM ATP), not stated per value
[10] = compound at 500 nM or 1 mM, 90 μM ATP

- IC50 ([1]; Table D1): 41 nM
- IC50 ([2]; Table D1): 32 nM
- IC50 ([3]; Table D1): 102 nM
- IC50 ([4]; Table D1): 88 nM
- IC50 ([5]; 90 μM ATP): 598 nM
Compound: Clc1cnc2nc1Nc1cccc(c1)CSCc1cccc(c1)N2 [Example D20, 6-Chloro-15-thia-2,4,8,23-tetraazatetracyclo[15.3.1.1(3,7).1(9,13)]tricosa-1(21),3(23),4,6,9(22),10,12,17,19-nonaene trifluoroacetate]

- IC50 ([1]; Table D1): 0.9 nM
- IC50 ([2]; Table D1): 0.2 nM
- IC50 ([3]; Table D1): 2 nM
- IC50 ([4]; Table D1): 6.7 nM
- IC50 ([5]; 90 μM ATP): 104 nM
Compound: Clc1cnc2nc1Nc1cccc(c1)OCCc1cc(cc(-c3cnc(N4CCNCC4)nc3)c1)N2 [Example D31, 6-Chloro-19-(2-piperazin-1-ylpyrimidin-5-yl)-14-oxa-2,4,8,23-tetraazatetracyclo[15.3.1.1(3,7).1(9,13)]tricosa-1(21),3(23),4,6,9(22),10,12,17,19-nonaene tris(trifluoroacetate)]

Second part, the compound before the results:

Compound: CN(Cc1ccc2cc1CCc1cncc(c1)Nc1ncc(Cl)c(n1)N2)C(=O)C1CCN(C(=O)Nc2ccccc2)CC1 [Example B337, N(4)-{[6-chloro-2,4,8,18,22-pentaazatetracyclo[14.3.1.1(3,7).1(9,13)]docosa-1(20),3(22),4,6,9(21),10,12,16,18-nonaen-12-yl]methyl}-N(4)-methyl-N(1)-phenylpiperidine-1,4-dicarboxamide bis(trifluoroacetate)]
- IC50 ([1]; Table B1): 41 nM
- IC50 ([2]; Table B1): 171 nM
- IC50 ([3]; Table B1): > 200 nM
- IC50 ([4]; Table B1): > 200 nM
- ALK % of inhibition at a concentration of 500 nM or 1 mM ([5]; percentage inhibition of the example compound at a concentration of 500 nM or 1 mM (not specified which)): 21%

Compound: O=C(NCCNC(=O)c1ccccn1)Nc1ccc2cc1CCc1cccc(c1)Nc1ncc(Cl)c(n1)N2 [Example B190, N-{2-[({[6-Chloro-2,4,8,22-tetraazatetracyclo[14.3.1.1(3,7).1(9,13)]docosa-1(20),3(22),4,6,9(21),10,12,16,18-nonaen-12-yl]amino}carbonyl)amino]ethyl}pyridine-2-carboxamide trifluoroacetate]
- IC50 ([1]; Table B1): 5 nM
- IC50 ([2]; Table B1): 10 nM
- IC50 ([3]; Table B1): 19 nM
- IC50 ([4]; Table B1): 61 nM
- ALK % of inhibition at a concentration of 500 nM or 1 mM [5, 6]: 11%

Compound: O=C(CC1CCN(C(=O)c2ccc(F)cc2)CC1)Nc1ccc2cc1CCc1cccc(c1)Nc1ncc(Cl)c(n1)N2 [Example A203, N-[6-Chloro-2,4,8,22-tetraazatetracyclo[14.3.1.1(3,7).1(9,13)]docosa-1(20),3(22),4,6,9(21),10,12,16,18-nonaen-12-yl]-2-[1-(4-fluorobenzoyl)piperidin-4-yl]acetamide trifluoroacetate]
- IC50 [1, 7]: 38 nM
- IC50 [2, 8]: 150 nM
- IC50 [3]: > 200 nM
- IC50 [4, 9]: > 200 nM
- ALK % of inhibition at a concentration of 500 nM or 1 mM [5, 10]: 38%

Compound: COc1ccc(S(=O)(=O)N2CCC(CC(=O)Nc3ccc4cc3CCc3cccc(c3)Nc3ncc(Cl)c(n3)N4)CC2)cc1 [Example A207, N-[6-Chloro-2,4,8,22-tetraazatetracyclo[14.3.1.1(3,7).1(9,13)]docosa-1(20),3(22),4,6,9(21),10,12,16,18-nonaen-12-yl]-2-{1-[(4-methoxyphenyl)sulfonyl]piperidin-4-yl}acetamide trifluoroacetate]
- IC50 [1, 7]: 85 nM
- IC50 [2, 8]: 199 nM
- IC50 [3]: > 200 nM
- IC50 [4, 9]: > 200 nM
- ALK % of inhibition at a concentration of 500 nM or 1 mM [5, 10]: 23%

Compound: COc1ccccc1N1CCN(C(=O)Nc2ccc3cc2CCc2cncc(c2)Nc2ncc(Cl)c(n2)N3)CC1 [Example B298, N-[6-Chloro-2,4,8,18,22-pentaazatetracyclo[14.3.1.1(3,7).1(9,13)]docosa-1(20),3(22),4,6,9(21),10,12,16,18-nonaen-12-yl]-4-(2-methoxyphenyl)piperazine-1-carboxamide tris(trifluoroacetate)]
- IC50 ([1]; Table B1): 29 nM
- IC50 ([2]; Table B1): 341 nM
- IC50 ([3]; Table B1): 208 nM
- IC50 ([4]; Table B1): > 400 nM
- ALK % of inhibition at a concentration of 500 nM or 1 mM [5, 6]: 62%
